We go through 7 compounds from patent publication US5698411A, “Method for determining activity of enzymes in metabolically active whole cells” (priority 1995, dated 1997).

Common to all, as to type: cell-based, human
One assay relates to granulocytes. The assay can be described thus: aberrant enzyme activities in febrile children, granulocytes (Table 7).
Another assay relates to lymphocytes. Description: aberrant enzyme activities in febrile children, lymphocytes (Table 7).
A further assay relates to monocytes. The assay can be described thus: aberrant enzyme activities in febrile children, monocytes (Table 7).
The mark [1] stands for this setting: P88 Enteritis, listed as Z-Gly/Pro.

As to `CC(C)C[C@H](NC(=O)[C@@H](N)CC(C)C)C(=O)N[C@@H](CCCNC(=N)N)C(=O)Nc1ccc2c(c1)Oc1cc(NC(=O)[C@H](CCCNC(=N)N)NC(=O)[C@H](CC(C)C)NC(=O)[C@@H](N)CC(C)C)ccc1C21OC(=O)c2ccccc21` (stereo partly drawn) [LLR, (H-L Leu--Leu--Arg)2 Rho 110 .4TFA], the “aberrant enzyme activity, GRANS” value with granulocytes (P92 Adenitis), in the assay on granulocytes (P97 Pyelonephritis) and in the assay on granulocytes (P103 Viral Syndrome) was “.smallcircle” each time. Also, the “aberrant enzyme activity, LYMPHS” value with lymphocytes (P92 Adenitis), in the assay with lymphocytes (P97 Pyelonephritis) and with lymphocytes (P103 Viral Syndrome) was “.smallcircle” in each case. Moreover, the “aberrant enzyme activity, MONOS” value in the assay with monocytes (P92 Adenitis) and with monocytes (P97 Pyelonephritis) was “.smallcircle” throughout.
Turning to `N[C@@H](CO)C(=O)Nc1ccc2c(c1)Oc1cc(NC(=O)[C@@H](N)CO)ccc1C21OC(=O)c2ccccc21` [SER, (H-L-Ser)2 Rho 110 .2TFA], the “aberrant enzyme activity, GRANS” value with granulocytes (P97 Pyelonephritis) and in the assay with granulocytes (P103 Viral Syndrome) was “.smallcircle” each time. Besides, the “aberrant enzyme activity, LYMPHS” value with lymphocytes (P92 Adenitis), in the assay with lymphocytes (P97 Pyelonephritis) and with lymphocytes (P103 Viral Syndrome) was “.smallcircle” each time. For the same compound, the “aberrant enzyme activity, MONOS” value in the assay with monocytes (P92 Adenitis) and in the assay on monocytes (P97 Pyelonephritis) was “.smallcircle” each time.
As to `C[C@H](NC(=O)OCc1ccccc1)C(=O)N[C@@H](C)C(=O)Nc1ccc2c(c1)Oc1cc(NC(=O)[C@H](C)NC(=O)[C@H](C)NC(=O)OCc3ccccc3)ccc1C21OC(=O)c2ccccc21` [Z-AA, (Z-Ala--Ala)2 Rho 110], the “aberrant enzyme activity, GRANS” value with granulocytes (P96 Viral Syndrome), in the assay with granulocytes (P97 Pyelonephritis), in the assay on granulocytes (P99 Viral Syndrome), in the assay with granulocytes (P102 UTI) and in the assay with granulocytes (P103 Viral Syndrome) was “.smallcircle” each time. For the same compound, the “aberrant enzyme activity, LYMPHS” value in the assay on lymphocytes (P99 Viral Syndrome) and with lymphocytes (P102 UTI) was “.smallcircle” throughout. Also, the “aberrant enzyme activity, MONOS” value in the assay on monocytes (P96 Viral Syndrome), in the assay on monocytes (P97 Pyelonephritis), in the assay on monocytes (P99 Viral Syndrome), with monocytes (P102 UTI) and in the assay with monocytes (P103 Viral Syndrome) was “.smallcircle” throughout.
`C[C@H](NC(=O)OCc1ccccc1)C(=O)NCC(=O)Nc1ccc2c(c1)Oc1cc(NC(=O)CNC(=O)[C@H](C)NC(=O)OCc3ccccc3)ccc1C21OC(=O)c2ccccc21` [Z-AG, (Z-Ala--Gly)2 Rho 110]: the “aberrant enzyme activity, GRANS” value in the assay on granulocytes (P89 Viral Stomatitis), with granulocytes (P92 Adenitis), in the assay with granulocytes (P95 Viral Syndrome), in the assay with granulocytes (P96 Viral Syndrome), in the assay on granulocytes (P97 Pyelonephritis) and with granulocytes (P99 Viral Syndrome) was “.smallcircle” each time. The “aberrant enzyme activity, GRANS” value with granulocytes (P102 UTI) and with granulocytes (P103 Viral Syndrome) was “.smallcircle” each time. The “aberrant enzyme activity, LYMPHS” value in the assay on lymphocytes (P99 Viral Syndrome), with lymphocytes (P102 UTI) and with lymphocytes (P103 Viral Syndrome) was “.smallcircle” each time. The “aberrant enzyme activity, MONOS” value in the assay on monocytes (P89 Viral Stomatitis), with monocytes (P95 Viral Syndrome), with monocytes (P96 Viral Syndrome), in the assay with monocytes (P97 Pyelonephritis), in the assay on monocytes (P99 Viral Syndrome) and with monocytes (P102 UTI) was “.smallcircle” each time. In the assay with monocytes (P103 Viral Syndrome), the “aberrant enzyme activity, MONOS” value is on record as “.smallcircle”.
Regarding `O=C(NCC(=O)N1CCC[C@H]1C(=O)Nc1ccc2c(c1)Oc1cc(NC(=O)[C@@H]3CCCN3C(=O)CNC(=O)OCc3ccccc3)ccc1C21OC(=O)c2ccccc21)OCc1ccccc1` [Z-GP, (carbobenzyloxycarbonyl-Gly-Pro)2 Rho 110], the “aberrant enzyme activity, GRANS” value is reported as “.smallcircle” in the assay on granulocytes (setting [1]); “- (>0.25 Decrease over normal range)” in the assay with granulocytes (P92 Adenitis); “- (>0.25 Decrease over normal range)” in the assay with granulocytes (P95 Viral Syndrome); “.smallcircle” in the assay with granulocytes (P96 Viral Syndrome); “.smallcircle” in the assay with granulocytes (P97 Pyelonephritis); “.smallcircle” in the assay with granulocytes (P99 Viral Syndrome). Also, the “aberrant enzyme activity, GRANS” value with granulocytes (P103 Viral Syndrome) is “.smallcircle”. The “aberrant enzyme activity, LYMPHS” value is reported as “.smallcircle” in the assay on lymphocytes (setting [1]); “- (>0.25 Decrease over normal range)” in the assay on lymphocytes (P89 Viral Stomatitis); “- (>0.25 Decrease over normal range)” in the assay on lymphocytes (P92 Adenitis); “- (>0.25 Decrease over normal range)” with lymphocytes (P95 Viral Syndrome); “- (>0.25 Decrease over normal range)” in the assay with lymphocytes (P96 Viral Syndrome); “.smallcircle” in the assay with lymphocytes (P97 Pyelonephritis, listed as Z-Gly/Pro). For the same compound, the “aberrant enzyme activity, LYMPHS” value in the assay on lymphocytes (P101 Fever -- Unknown Origin) and in the assay on lymphocytes (P103 Viral Syndrome) was “- (>0.25 Decrease over normal range)” throughout. For the same compound, the “aberrant enzyme activity, MONOS” value in the assay on monocytes (setting [1]) was “.smallcircle”; in the assay on monocytes (P89 Viral Stomatitis), “.smallcircle”; with monocytes (P92 Adenitis), “- (>0.25 Decrease over normal range)”; with monocytes (P95 Viral Syndrome), “.smallcircle”; with monocytes (P96 Viral Syndrome) it was “.smallcircle”; with monocytes (P97 Pyelonephritis) it was “.smallcircle”. For the same compound, the “aberrant enzyme activity, MONOS” value with monocytes (P99 Viral Syndrome) is recorded as “.smallcircle”; in the assay on monocytes (P101 Fever -- Unknown Origin) it was “- (>0.25 Decrease over normal range)”; with monocytes (P102 UTI), “.smallcircle”; with monocytes (P103 Viral Syndrome), “.smallcircle”.
As to `C[C@@H](O)[C@H](NC(=O)OCc1ccccc1)C(=O)N1CCC[C@H]1C(=O)Nc1ccc2c(c1)Oc1cc(NC(=O)[C@@H]3CCCN3C(=O)[C@@H](NC(=O)OCc3ccccc3)[C@@H](C)O)ccc1C21OC(=O)c2ccccc21` [Z-TP6.5, (carbobenzyloxycarbonyl-Thr-Pro)2 Rho 110 (pH 6.5)], the “aberrant enzyme activity, GRANS” value was “- (>0.25 Decrease over normal range)” in the assay on granulocytes (P88 Enteritis), “- (>0.25 Decrease over normal range)” in the assay on granulocytes (P89 Viral Stomatitis), “- (>0.25 Decrease over normal range)” in the assay with granulocytes (P92 Adenitis) and “.smallcircle” in the assay on granulocytes (P103 Viral Syndrome). The “aberrant enzyme activity, LYMPHS” value in the assay with lymphocytes (P88 Enteritis) is reported as “- (>0.25 Decrease over normal range)”; in the assay with lymphocytes (P89 Viral Stomatitis), “- (>0.25 Decrease over normal range)”; in the assay on lymphocytes (P92 Adenitis), “- (>0.25 Decrease over normal range)”; in the assay with lymphocytes (P97 Pyelonephritis), “.smallcircle”; with lymphocytes (P103 Viral Syndrome), “.smallcircle”. In addition, the “aberrant enzyme activity, MONOS” value in the assay with monocytes (P88 Enteritis) is reported as “- (>0.25 Decrease over normal range)”; in the assay with monocytes (P89 Viral Stomatitis) it was “- (>0.25 Decrease over normal range)”; in the assay on monocytes (P92 Adenitis), “- (>0.25 Decrease over normal range)”; in the assay with monocytes (P97 Pyelonephritis), “.smallcircle”; with monocytes (P103 Viral Syndrome) it was “.smallcircle”.
“dichlorofluorescein [reference compound]”: the “aberrant enzyme activity, GRANS” value in the assay on granulocytes (P88 Enteritis) is listed as “.smallcircle”; with granulocytes (P89 Viral Stomatitis), “+ (>0.25 Increase over normal range)”; in the assay on granulocytes (P92 Adenitis), “+ (>0.25 Increase over normal range)”; with granulocytes (P95 Viral Syndrome), “+ (>0.25 Increase over normal range)”; in the assay with granulocytes (P96 Viral Syndrome) it was “+ (>0.25 Increase over normal range)”; in the assay with granulocytes (P97 Pyelonephritis) it was “+ (>0.25 Increase over normal range)”. For the same compound, the “aberrant enzyme activity, GRANS” value in the assay on granulocytes (P99 Viral Syndrome) is “.smallcircle”; with granulocytes (P101 Fever -- Unknown Origin) it was “+ (>0.25 Increase over normal range)”; in the assay on granulocytes (P102 UTI), “.smallcircle”; with granulocytes (P103 Viral Syndrome), “+ (>0.25 Increase over normal range)”. Also, the “aberrant enzyme activity, LYMPHS” value in the assay with lymphocytes (P88 Enteritis) is “.smallcircle”; with lymphocytes (P89 Viral Stomatitis) it was “+ (>0.25 Increase over normal range)”; in the assay on lymphocytes (P92 Adenitis) it was “+ (>0.25 Increase over normal range)”; in the assay on lymphocytes (P95 Viral Syndrome), “+ (>0.25 Increase over normal range)”; in the assay with lymphocytes (P96 Viral Syndrome) it was “+ (>0.25 Increase over normal range)”; in the assay with lymphocytes (P97 Pyelonephritis) it was “+ (>0.25 Increase over normal range)”. Also, the “aberrant enzyme activity, LYMPHS” value is “.smallcircle” in the assay with lymphocytes (P99 Viral Syndrome), “+ (>0.25 Increase over normal range)” in the assay on lymphocytes (P101 Fever -- Unknown Origin), “.smallcircle” with lymphocytes (P102 UTI) and “+ (>0.25 Increase over normal range)” with lymphocytes (P103 Viral Syndrome). The “aberrant enzyme activity, MONOS” value in the assay with monocytes (P88 Enteritis) is reported as “.smallcircle”; with monocytes (P89 Viral Stomatitis), “+ (>0.25 Increase over normal range)”; in the assay on monocytes (P92 Adenitis), “+ (>0.25 Increase over normal range)”; in the assay on monocytes (P95 Viral Syndrome) it was “+ (>0.25 Increase over normal range)”; with monocytes (P96 Viral Syndrome), “+ (>0.25 Increase over normal range)”; in the assay with monocytes (P97 Pyelonephritis), “+ (>0.25 Increase over normal range)”. Also, the “aberrant enzyme activity, MONOS” value in the assay with monocytes (P99 Viral Syndrome) is given as “.smallcircle”; in the assay on monocytes (P101 Fever -- Unknown Origin) it was “+ (>0.25 Increase over normal range)”; with monocytes (P102 UTI), “.smallcircle”; in the assay on monocytes (P103 Viral Syndrome) it was “+ (>0.25 Increase over normal range)”.
